Results reported in PMC10924921, “Mi-2β promotes immune evasion in melanoma by activating EZH2 methylation” (Nature Communications, 2024).

How the values were obtained:
Assay in all cases: biochemical
Design in all cases: KINOMEscan active-site competition binding panel (468 kinase assays), per cent of control at 1000 nM
Details in all cases: KINOMEscan per cent of control (binding competition); read-out: Percent Control
CDK7 = CDK7 (Homo sapiens, UniProt P50613)
Source text: (§1) Figure S7 / Percent Control

PDGFRB = PDGFRB (Homo sapiens, UniProt P09619)
Source text: as §1

[1] = target: T1, ABL1(E255K)-phosphorylated (Homo sapiens, UniProt P00519, E255K)
T1 construct: phosphorylated
Source text: as §1

[2] = target: T2, TYK2(JH2domain-pseudokinase) (Homo sapiens, UniProt P29597)
T2 construct: JH2domain-pseudokinase
Source text: as §1

PIK3CD = PIK3CD (Homo sapiens, UniProt O00329)
Source text: as §1

SIK2 = SIK2 (Homo sapiens, UniProt Q9H0K1)
Source text: as §1

ITK = ITK (Homo sapiens, UniProt Q08881)
Source text: as §1

YANK3 = target: T3, YANK3 (Homo sapiens, UniProt Q86UX6)
T3 construct: gene STK32C
Source text: as §1

CSF1R = CSF1R (Homo sapiens, UniProt P07333)
Source text: as §1

MKK7 = target: T4, MKK7 (Homo sapiens, UniProt O14733)
T4 construct: gene MAP2K7
Source text: as §1

BTK = BTK (Homo sapiens, UniProt Q06187)
Source text: as §1

NEK6 = NEK6 (Homo sapiens, UniProt Q9HC98)
Source text: as §1

SGK3 = SGK3 (Homo sapiens, UniProt Q96BR1)
Source text: as §1

ICK = target: T5, ICK (Homo sapiens, UniProt Q9UPZ9)
T5 construct: gene CILK1
Source text: as §1

KIT(V559D,V654A) = KIT(V559D,V654A) (Homo sapiens, UniProt P10721, V559D/V654A)
Source text: as §1

FLT3(N841I) = FLT3(N841I) (Homo sapiens, UniProt P36888, N841I)
Source text: as §1

RAF1 = RAF1 (Homo sapiens, UniProt P04049)
Source text: as §1

DAPK2 = DAPK2 (Homo sapiens, UniProt Q9UIK4)
Source text: as §1

ASK1 = target: T6, ASK1 (Homo sapiens, UniProt Q99683)
T6 construct: gene MAP3K5
Source text: as §1

PIP5K1A = PIP5K1A (Homo sapiens, UniProt Q99755)
Source text: as §1

TBK1 = TBK1 (Homo sapiens, UniProt Q9UHD2)
Source text: as §1

CDK5 = CDK5 (Homo sapiens, UniProt Q00535)
Source text: as §1

TESK1 = TESK1 (Homo sapiens, UniProt Q15569)
Source text: as §1

PIK3CA(M1043I) = PIK3CA(M1043I) (Homo sapiens, UniProt P42336, M1043I)
Source text: as §1

SIK2, sequence (Q9H0K1 whole entry): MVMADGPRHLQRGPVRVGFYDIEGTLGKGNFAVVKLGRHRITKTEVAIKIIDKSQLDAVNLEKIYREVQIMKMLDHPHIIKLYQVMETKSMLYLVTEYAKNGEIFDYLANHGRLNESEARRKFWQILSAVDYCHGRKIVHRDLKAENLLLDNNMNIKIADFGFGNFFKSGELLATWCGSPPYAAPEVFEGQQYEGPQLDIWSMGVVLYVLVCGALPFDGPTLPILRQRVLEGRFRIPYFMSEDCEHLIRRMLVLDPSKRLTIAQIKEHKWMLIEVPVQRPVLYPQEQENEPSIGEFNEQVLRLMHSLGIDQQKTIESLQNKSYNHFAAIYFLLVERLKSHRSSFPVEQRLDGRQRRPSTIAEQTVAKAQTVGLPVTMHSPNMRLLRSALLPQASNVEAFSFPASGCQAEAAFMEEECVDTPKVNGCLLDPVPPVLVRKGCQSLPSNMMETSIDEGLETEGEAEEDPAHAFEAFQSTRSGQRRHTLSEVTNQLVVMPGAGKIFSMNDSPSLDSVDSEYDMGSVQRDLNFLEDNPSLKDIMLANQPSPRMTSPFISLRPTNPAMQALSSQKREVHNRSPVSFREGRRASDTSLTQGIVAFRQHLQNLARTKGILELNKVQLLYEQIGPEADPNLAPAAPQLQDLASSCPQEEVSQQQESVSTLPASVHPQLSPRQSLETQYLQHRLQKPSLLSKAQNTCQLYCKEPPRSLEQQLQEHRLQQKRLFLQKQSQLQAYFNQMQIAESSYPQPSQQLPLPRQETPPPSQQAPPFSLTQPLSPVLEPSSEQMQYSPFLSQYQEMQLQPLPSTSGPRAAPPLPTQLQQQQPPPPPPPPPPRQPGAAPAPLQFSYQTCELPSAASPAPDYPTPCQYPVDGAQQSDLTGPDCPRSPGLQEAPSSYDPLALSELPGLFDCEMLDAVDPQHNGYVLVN
ITK, sequence (Q08881 whole entry): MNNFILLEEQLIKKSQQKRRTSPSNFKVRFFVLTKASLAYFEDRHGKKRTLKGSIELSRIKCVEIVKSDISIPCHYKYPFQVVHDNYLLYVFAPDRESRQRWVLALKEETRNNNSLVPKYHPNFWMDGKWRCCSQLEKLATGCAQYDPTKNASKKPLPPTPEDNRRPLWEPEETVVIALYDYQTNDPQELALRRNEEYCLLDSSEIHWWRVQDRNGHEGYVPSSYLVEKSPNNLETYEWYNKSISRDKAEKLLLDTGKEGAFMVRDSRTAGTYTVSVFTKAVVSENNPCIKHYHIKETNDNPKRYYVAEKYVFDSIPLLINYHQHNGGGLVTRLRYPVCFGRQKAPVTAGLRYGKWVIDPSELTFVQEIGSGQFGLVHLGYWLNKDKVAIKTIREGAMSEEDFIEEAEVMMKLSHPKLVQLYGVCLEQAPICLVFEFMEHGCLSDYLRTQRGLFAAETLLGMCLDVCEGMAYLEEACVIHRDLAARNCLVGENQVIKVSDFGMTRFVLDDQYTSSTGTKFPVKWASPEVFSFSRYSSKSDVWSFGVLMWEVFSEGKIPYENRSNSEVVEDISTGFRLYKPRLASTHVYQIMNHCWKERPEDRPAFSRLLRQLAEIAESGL
T4 sequence (O14733 whole entry): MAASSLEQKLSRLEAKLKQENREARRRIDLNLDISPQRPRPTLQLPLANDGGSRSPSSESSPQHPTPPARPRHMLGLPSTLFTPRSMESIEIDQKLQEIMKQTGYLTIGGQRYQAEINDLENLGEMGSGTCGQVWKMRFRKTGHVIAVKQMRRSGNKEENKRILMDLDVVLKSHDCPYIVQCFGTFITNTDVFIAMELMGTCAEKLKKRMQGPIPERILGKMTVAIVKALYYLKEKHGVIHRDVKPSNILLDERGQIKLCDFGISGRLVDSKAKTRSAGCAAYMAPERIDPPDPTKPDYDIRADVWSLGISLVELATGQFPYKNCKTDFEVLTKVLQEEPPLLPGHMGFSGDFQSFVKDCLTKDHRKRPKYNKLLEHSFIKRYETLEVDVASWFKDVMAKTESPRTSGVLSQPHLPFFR
T2 sequence (P29597 whole entry): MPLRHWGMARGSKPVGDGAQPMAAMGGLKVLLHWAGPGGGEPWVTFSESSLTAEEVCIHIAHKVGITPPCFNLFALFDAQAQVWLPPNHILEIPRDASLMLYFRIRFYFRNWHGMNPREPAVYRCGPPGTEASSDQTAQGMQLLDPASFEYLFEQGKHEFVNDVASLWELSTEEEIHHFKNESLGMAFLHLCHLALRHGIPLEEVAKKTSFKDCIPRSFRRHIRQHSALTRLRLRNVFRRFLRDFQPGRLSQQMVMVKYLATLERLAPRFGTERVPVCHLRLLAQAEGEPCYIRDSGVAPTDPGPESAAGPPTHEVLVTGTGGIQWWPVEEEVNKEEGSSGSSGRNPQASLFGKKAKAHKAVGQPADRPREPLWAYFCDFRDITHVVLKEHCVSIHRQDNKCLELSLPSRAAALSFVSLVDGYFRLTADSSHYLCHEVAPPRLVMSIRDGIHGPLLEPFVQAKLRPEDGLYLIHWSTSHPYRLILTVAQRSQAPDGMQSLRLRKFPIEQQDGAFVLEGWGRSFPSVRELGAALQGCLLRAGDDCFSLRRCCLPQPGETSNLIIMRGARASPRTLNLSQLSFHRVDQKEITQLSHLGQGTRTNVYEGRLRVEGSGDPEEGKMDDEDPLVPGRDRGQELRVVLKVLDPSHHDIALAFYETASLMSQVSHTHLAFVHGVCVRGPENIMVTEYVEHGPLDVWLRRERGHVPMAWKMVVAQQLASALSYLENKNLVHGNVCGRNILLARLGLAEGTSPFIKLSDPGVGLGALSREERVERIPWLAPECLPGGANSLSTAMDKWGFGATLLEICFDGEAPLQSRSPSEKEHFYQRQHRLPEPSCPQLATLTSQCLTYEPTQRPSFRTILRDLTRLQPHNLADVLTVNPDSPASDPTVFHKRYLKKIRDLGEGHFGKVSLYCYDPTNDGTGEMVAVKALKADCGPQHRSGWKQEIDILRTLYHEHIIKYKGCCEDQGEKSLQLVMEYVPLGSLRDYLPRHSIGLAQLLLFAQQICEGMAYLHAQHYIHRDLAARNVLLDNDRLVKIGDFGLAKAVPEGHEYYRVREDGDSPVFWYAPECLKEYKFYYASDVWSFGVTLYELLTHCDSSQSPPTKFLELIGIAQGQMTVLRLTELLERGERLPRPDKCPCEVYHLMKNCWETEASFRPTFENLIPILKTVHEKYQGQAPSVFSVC
T3 sequence (Q86UX6 whole entry): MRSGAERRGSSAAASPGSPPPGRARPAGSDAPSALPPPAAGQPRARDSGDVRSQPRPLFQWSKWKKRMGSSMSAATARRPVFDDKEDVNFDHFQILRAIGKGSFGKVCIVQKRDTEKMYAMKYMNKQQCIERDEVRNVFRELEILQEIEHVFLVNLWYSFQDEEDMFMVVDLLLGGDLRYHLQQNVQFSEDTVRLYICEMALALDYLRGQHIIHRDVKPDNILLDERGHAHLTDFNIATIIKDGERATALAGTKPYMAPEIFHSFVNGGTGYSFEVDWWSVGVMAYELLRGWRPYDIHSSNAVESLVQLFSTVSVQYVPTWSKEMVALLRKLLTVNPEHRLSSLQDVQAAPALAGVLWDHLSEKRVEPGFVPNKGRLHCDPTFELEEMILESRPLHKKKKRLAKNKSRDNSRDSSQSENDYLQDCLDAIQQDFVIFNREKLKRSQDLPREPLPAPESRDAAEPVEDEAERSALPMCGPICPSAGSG
DAPK2, sequence (Q9UIK4 whole entry): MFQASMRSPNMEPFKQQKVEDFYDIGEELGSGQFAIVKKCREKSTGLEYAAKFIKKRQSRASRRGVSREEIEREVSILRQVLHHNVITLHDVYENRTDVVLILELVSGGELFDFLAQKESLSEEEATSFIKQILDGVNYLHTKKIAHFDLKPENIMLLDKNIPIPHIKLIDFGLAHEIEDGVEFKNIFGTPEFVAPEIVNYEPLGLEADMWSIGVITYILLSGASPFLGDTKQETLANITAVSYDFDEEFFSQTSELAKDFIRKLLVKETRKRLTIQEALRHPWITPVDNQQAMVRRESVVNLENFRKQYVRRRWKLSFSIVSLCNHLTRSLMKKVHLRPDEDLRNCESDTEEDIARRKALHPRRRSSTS
PIK3CA(M1043I), sequence (P42336 whole entry M1043I): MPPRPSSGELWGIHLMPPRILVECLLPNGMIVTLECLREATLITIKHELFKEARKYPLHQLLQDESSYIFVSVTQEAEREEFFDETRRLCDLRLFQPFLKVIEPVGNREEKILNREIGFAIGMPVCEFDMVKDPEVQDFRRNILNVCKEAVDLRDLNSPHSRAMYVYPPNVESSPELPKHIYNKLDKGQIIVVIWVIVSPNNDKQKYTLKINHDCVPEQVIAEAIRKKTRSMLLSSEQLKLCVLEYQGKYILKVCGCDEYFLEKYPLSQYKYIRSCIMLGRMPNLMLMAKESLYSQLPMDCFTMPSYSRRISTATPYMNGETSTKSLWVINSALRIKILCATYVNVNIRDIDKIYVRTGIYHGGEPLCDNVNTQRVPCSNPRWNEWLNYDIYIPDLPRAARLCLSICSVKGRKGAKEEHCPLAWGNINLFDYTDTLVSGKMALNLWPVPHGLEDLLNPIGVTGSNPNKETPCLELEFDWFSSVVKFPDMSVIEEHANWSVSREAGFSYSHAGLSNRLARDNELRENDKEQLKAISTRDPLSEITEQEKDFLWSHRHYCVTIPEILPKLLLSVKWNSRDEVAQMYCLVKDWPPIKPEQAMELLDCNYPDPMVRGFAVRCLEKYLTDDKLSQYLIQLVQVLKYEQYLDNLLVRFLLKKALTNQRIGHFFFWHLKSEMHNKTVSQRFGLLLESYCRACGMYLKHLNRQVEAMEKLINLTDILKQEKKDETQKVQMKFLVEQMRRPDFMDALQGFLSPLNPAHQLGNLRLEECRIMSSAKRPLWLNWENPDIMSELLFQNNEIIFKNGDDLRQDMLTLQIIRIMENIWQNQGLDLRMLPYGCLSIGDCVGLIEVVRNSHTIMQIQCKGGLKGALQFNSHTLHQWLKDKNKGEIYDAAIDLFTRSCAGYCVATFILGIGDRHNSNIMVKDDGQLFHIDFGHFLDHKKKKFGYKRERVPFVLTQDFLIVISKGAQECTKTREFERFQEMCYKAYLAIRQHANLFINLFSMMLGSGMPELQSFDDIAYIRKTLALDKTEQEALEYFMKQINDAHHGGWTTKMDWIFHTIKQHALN

SMILES: Cn1c(=O)[nH]c2ccc(-c3cccc(C(=O)NC4CCn5ccnc5C4)c3)cc21 (stereo not drawn) [Z36-MP5]
- remaining binding at 1 µM (CDK7): 42%
- remaining binding at 1 µM (PDGFRB): 93%
- remaining binding at 1 µM [1]: 79%
- remaining binding at 1 µM [2]: 79%
- remaining binding at 1 µM (PIK3CD): 74%
- remaining binding at 1 µM (SIK2): 81%
- remaining binding at 1 µM (ITK): 96%
- remaining binding at 1 µM (YANK3): 94%
- remaining binding at 1 µM (CSF1R): 91%
- remaining binding at 1 µM (MKK7): 72%
- remaining binding at 1 µM (BTK): 89%
- remaining binding at 1 µM (NEK6): 83%
- remaining binding at 1 µM (SGK3): 60%
- remaining binding at 1 µM (ICK): 100%
- remaining binding at 1 µM (KIT(V559D,V654A)): 76%
- remaining binding at 1 µM (FLT3(N841I)): 63%
- remaining binding at 1 µM (RAF1): 83%
- remaining binding at 1 µM (DAPK2): 93%
- remaining binding at 1 µM (ASK1): 75%
- remaining binding at 1 µM (PIP5K1A): 57%
- remaining binding at 1 µM (TBK1): 98%
- remaining binding at 1 µM (CDK5): 55%
- remaining binding at 1 µM (TESK1): 100%
- remaining binding at 1 µM (PIK3CA(M1043I)): 83%
